Data published in patent US8012717B2, “Method for the production of cladribine” (Explora Laboratories S.A., priority 2006, dated 2011).

Format: physicochemical
Method: 0.42 g (equal to 2.5 mMoles) of 2-chloroadenine were suspended in 50 ml of DMF and heated while being stirred. Aliquots of DMF were added until a complete hot solubilisation was obtained. 100 ml of solvent were necessary to obtain the solubilisation of the 2-chloroadenine.
A solubilisation test was also carried out of 2-chloroadenine in 25% KOH in order to increase the solubilisation. 4.05 grams of 2-chloroadenine were resuspended in KOH being stirred. Aliquots of (25% w:v) KOH were added until complete solubilisation was obtained. Even after the addition of 100 ml of 25% KOH, the 2-chloroadenine remained practically undissolved.

- solubility in 25% KOH: practically insoluble
- volume of solvent necessary to obtain the solubilisation: 100 mL
SMILES: Nc1nc(Cl)nc2nc[nH]c12 [2-chloroadenine]
